For the experiment, the system named is BDF1 mice, intracerebral L1210 leukemia, survival T/C. Nature of the experiment: NCI In Vivo Anticancer Drug Screen. Data for tumor model L1210 Leukemia (intracerebral) in B6D2F1 (BDF1) mice. To be noted: higher = longer survival. The method, boiled down:
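Transplantable tumour-bearing mice, compound-treated vs vehicle controls; read-out survival, reported as T/C ratio.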

The mark [1] stands for this setting: endpoint: median survival time, dose: 8.0 mg/kg/injection, schedule: Q01DX009 (ip), vehicle: water.
The mark [2] stands for this setting: endpoint: median survival time, dose: 16.0 mg/kg/injection, schedule: Q01DX009 (ip), vehicle: water.
The mark [3] stands for this setting: endpoint: median survival time, dose: 256.0 mg/kg/injection, schedule: Q01DX009 (ip), vehicle: water.

Where “and” joins values, the source holds several entries; their conditions need not be identical. Equal entries are not always repeated. Toxic doses and inconclusive results are not listed.

With `NC(C/[N+]([O-])=N/O)C(=O)O` (stereo not drawn), the T/C is 96 % of control (endpoint: mean survival time, dose: 25.0 mg/kg/injection, schedule: Q01DX009 (ip), vehicle: other); 97 % of control (endpoint: mean survival time, dose: 50.0 mg/kg/injection, schedule: Q01DX001 (ip), vehicle: other); 98 % of control (endpoint: mean survival time, dose: 50.0 mg/kg/injection, schedule: Q01DX009 (ip), vehicle: other); 98 % of control (endpoint: mean survival time, dose: 100.0 mg/kg/injection, schedule: Q01DX001 (ip), vehicle: other); 91 % of control (endpoint: mean survival time, dose: 100.0 mg/kg/injection, schedule: Q01DX009 (ip), vehicle: other); 101 % of control (endpoint: mean survival time, dose: 200.0 mg/kg/injection, schedule: Q01DX001 (ip), vehicle: other). Also, the T/C (endpoint: mean survival time, dose: 400.0 mg/kg/injection, schedule: Q01DX001 (ip), vehicle: other) is 106 % of control.

As for `Nc1nncs1`, the T/C (endpoint: mean survival time, dose: 135.0 mg/kg/injection, schedule: Q01DX009 (ip), vehicle: saline) was 101 % of control; the T/C (endpoint: median survival time, dose: 64.0 mg/kg/injection, schedule: Q01DX005 (ip), vehicle: saline with Tween-80) is 120 % of control; the T/C (endpoint: median survival time, dose: 512.0 mg/kg/injection, schedule: Q01DX005 (ip), vehicle: saline with Tween-80) is 100 % of control.

As for `Cc1cc(C)c(NC(=O)N(CCCl)N=O)c(C)c1`, the T/C is, setting by setting: (endpoint: mean survival time, dose: 5.0 mg/kg/injection, schedule: Q01DX001 (ip), vehicle: other) 97 % of control; (endpoint: mean survival time, dose: 7.5 mg/kg/injection, schedule: Q01DX001 (ip), vehicle: other) 98 % of control; (endpoint: mean survival time, dose: 10.0 mg/kg/injection, schedule: Q01DX001 (ip), vehicle: other) 103 % of control; (endpoint: mean survival time, dose: 15.0 mg/kg/injection, schedule: Q01DX001 (ip), vehicle: other) 107 % of control and 117 % of control; (endpoint: mean survival time, dose: 20.0 mg/kg/injection, schedule: Q01DX001 (ip), vehicle: other) 115 % of control; (endpoint: mean survival time, dose: 128.0 mg/kg/injection, schedule: Q01DX001 (ip), vehicle: other) 101 % of control.

Consider `COc1ccc(NC(=O)N(CCCl)N=O)cc1`, for which the T/C is 105 % of control (endpoint: mean survival time, dose: 4.4 mg/kg/injection, schedule: Q01DX015 (ip), vehicle: saline); 113 % of control (endpoint: mean survival time, dose: 6.6 mg/kg/injection, schedule: Q01DX015 (ip), vehicle: saline); 104 % of control (endpoint: mean survival time, dose: 9.9 mg/kg/injection, schedule: Q01DX001 (ip), vehicle: carboxymethylcellulose (CMC)); 113 % of control (endpoint: mean survival time, dose: 10.0 mg/kg/injection, schedule: Q01DX015 (ip), vehicle: saline); 102 % of control (endpoint: mean survival time, dose: 15.0 mg/kg/injection, schedule: Q01DX001 (ip), vehicle: saline); 124 % of control (endpoint: mean survival time, dose: 15.0 mg/kg/injection, schedule: Q01DX015 (ip), vehicle: saline). Besides, the T/C (endpoint: mean survival time, dose: 19.8 mg/kg/injection, schedule: Q01DX001 (ip), vehicle: carboxymethylcellulose (CMC)) was 108 % of control; the T/C (endpoint: mean survival time, dose: 22.0 mg/kg/injection, schedule: Q01DX015 (ip), vehicle: saline) was 104 % of control; the T/C (endpoint: mean survival time, dose: 30.0 mg/kg/injection, schedule: Q01DX001 (ip), vehicle: saline) was 105 % of control; the T/C (endpoint: mean survival time, dose: 39.6 mg/kg/injection, schedule: Q01DX001 (ip), vehicle: carboxymethylcellulose (CMC)) was 102 % of control; the T/C (endpoint: mean survival time, dose: 60.0 mg/kg/injection, schedule: Q01DX001 (ip), vehicle: saline) is 108 % of control; the T/C (endpoint: mean survival time, dose: 120.0 mg/kg/injection, schedule: Q01DX001 (ip), vehicle: saline) was 113 % of control. Moreover, the T/C (endpoint: mean survival time, dose: 240.0 mg/kg/injection, schedule: Q01DX001 (ip), vehicle: saline) was 111 % of control.

Consider `C[C@@H](CN1CC(=O)NC(=O)C1)N1CC(=O)NC(=O)C1`, for which the T/C by setting is: under setting [1], 112 % of control; under setting [2], 121 % of control and 123 % of control; (endpoint: median survival time, dose: 128.0 mg/kg/injection, schedule: Q01DX009 (ip), vehicle: water) 123 % of control; under setting [3], 111 % of control; (endpoint: median survival time, dose: 512.0 mg/kg/injection, schedule: Q01DX009 (ip), vehicle: water) 113 % of control.

With `C[C@H](N)C(=O)N[C@@H]1[C@H]2C(=C(O)C[C@@H](O)[C@@H]2O)C(=O)O[C@@H]1C`, the T/C (endpoint: mean survival time, dose: 125.0 mg/kg/injection, schedule: Q01DX Z (ip), vehicle: saline) was 97 % of control; the T/C (endpoint: mean survival time, dose: 211.0 mg/kg/injection, schedule: Q01DX015 (ip), vehicle: saline) was 103 % of control; the T/C (endpoint: mean survival time, dose: 250.0 mg/kg/injection, schedule: Q01DX Z (ip), vehicle: saline) is 107 % of control; the T/C (endpoint: mean survival time, dose: 320.0 mg/kg/injection, schedule: Q01DX015 (ip), vehicle: saline) was 103 % of control; the T/C (endpoint: mean survival time, dose: 480.0 mg/kg/injection, schedule: Q01DX015 (ip), vehicle: saline) is 102 % of control; the T/C (endpoint: mean survival time, dose: 500.0 mg/kg/injection, schedule: Q01DX Z (ip), vehicle: saline) is 109 % of control. Moreover, the T/C was 103 % of control (endpoint: mean survival time, dose: 720.0 mg/kg/injection, schedule: Q01DX015 (ip), vehicle: saline); 107 % of control (endpoint: mean survival time, dose: 750.0 mg/kg/injection, schedule: Q01DX Z (ip), vehicle: saline); 106 % of control (endpoint: mean survival time, dose: 1000.0 mg/kg/injection, schedule: Q01DX Z (ip), vehicle: saline); 105 % of control (endpoint: mean survival time, dose: 1080.0 mg/kg/injection, schedule: Q01DX015 (ip), vehicle: saline); 106 % of control (endpoint: mean survival time, dose: 1500.0 mg/kg/injection, schedule: Q01DX Z (ip), vehicle: saline); 109 % of control (endpoint: mean survival time, dose: 2024.0 mg/kg/injection, schedule: Q01DX001 (ip), vehicle: saline). The T/C (endpoint: mean survival time, dose: 3082.0 mg/kg/injection, schedule: Q01DX001 (ip), vehicle: saline) is 105 % of control.

As to `C=CCNC(=O)NCC=C`, the T/C was 101 % of control (endpoint: mean survival time, dose: 25.0 mg/kg/injection, schedule: Q01DX009 (ip), vehicle: saline); 103 % of control (endpoint: mean survival time, dose: 50.0 mg/kg/injection, schedule: Q01DX009 (ip), vehicle: saline); 97 % of control (endpoint: mean survival time, dose: 100.0 mg/kg/injection, schedule: Q01DX009 (ip), vehicle: saline); 105 % of control (endpoint: mean survival time, dose: 200.0 mg/kg/injection, schedule: Q01DX009 (ip), vehicle: saline).

Consider `CN(N=O)C(=O)NC(N)=O`, for which the T/C is 102 % of control (endpoint: mean survival time, dose: 33.0 mg/kg/injection, schedule: Q01DX001 (ip), vehicle: carboxymethylcellulose (CMC)); 105 % of control (endpoint: mean survival time, dose: 50.0 mg/kg/injection, schedule: Q01DX001 (ip), vehicle: carboxymethylcellulose (CMC)); 114 % of control (endpoint: mean survival time, dose: 75.0 mg/kg/injection, schedule: Q01DX001 (ip), vehicle: carboxymethylcellulose (CMC)); 115 % of control (endpoint: mean survival time, dose: 112.0 mg/kg/injection, schedule: Q01DX001 (ip), vehicle: carboxymethylcellulose (CMC)).

As for `O=NN(CCF)C(=O)Nc1ccccc1`, the T/C (endpoint: mean survival time, dose: 8.0 mg/kg/injection, schedule: Q01DX001 (ip), vehicle: other) is 120 % of control.

Turning to `c1cc2n(n1)CCN2`, the T/C reads like this: (endpoint: median survival time, dose: 50.0 mg/kg/injection, schedule: Q01DX009 (ip), vehicle: water) 94 % of control; (endpoint: median survival time, dose: 100.0 mg/kg/injection, schedule: Q01DX009 (ip), vehicle: water) 106 % of control; (endpoint: median survival time, dose: 100.0 mg/kg/injection, schedule: Q04DX003 (ip), vehicle: water) 102 % of control; (endpoint: median survival time, dose: 200.0 mg/kg/injection, schedule: Q01DX009 (ip), vehicle: water) 107 % of control; (endpoint: median survival time, dose: 200.0 mg/kg/injection, schedule: Q04DX003 (ip), vehicle: water) 114 % of control; (endpoint: median survival time, dose: 300.0 mg/kg/injection, schedule: Q04DX003 (ip), vehicle: water) 116 % of control.

Consider `CC(C)(C)C1CCCC(NC(=O)N(CCCl)N=O)C1` (stereo not drawn), for which the T/C (endpoint: mean survival time, dose: 187.0 mg/kg/injection, schedule: Q01DX001 (ip), vehicle: saline with Tween-80) is 169 % of control.

Consider `C[C@H](CN1CC(=O)NC(=O)C1)N1CC(=O)NC(=O)C1`, for which the T/C under setting [1] is 107 % of control; the T/C under setting [2] is 115 % of control and 116 % of control; the T/C (endpoint: median survival time, dose: 32.0 mg/kg/injection, schedule: Q01DX009 (ip), vehicle: water) is 124 % of control; the T/C (endpoint: median survival time, dose: 64.0 mg/kg/injection, schedule: Q01DX009 (ip), vehicle: water) was 123 % of control; the T/C under setting [3] is 109 % of control and 95 % of control.

The values are drawn from PubChem BioAssay AID252 (DTP/NCI, 2004).
